Source: patent US20210251934A1, “NOVEL COMPOSITIONS FOR THE TREATMENT OF INFLAMMATORY DISEASES” (SystaMedic Inc., priority 2018, published 2021)

Tested on: formalin induced pain responses
Test: Formalin Test (formalin induced pain responses, flinches and licks)
Format: in vivo, rat
Conditions: late phase 20 to 30 min after formalin
Protocol: Evaluation of analgesic and anti-inflammatory effects of compositions of claim 1 (See Hunskaar S and Hole K. (1987) Pain 30(1):103-14.)
In the Formalin Test a 5% solution of formaldehyde is injected subcutaneously to rat paw which produces a biphasic pain response over a test period of 60 minutes: an early phase lasting the first 5 min and a late phase lasting from 20 to 30 min after the injection of formalin. The early phase is due to a direct effect of […] on nociceptors and the late phase seems to be an inflammatory response with inflammatory pain that can be inhibited by anti-inflammatory drugs. For determining effects of compositions on these response phases two measurements were taken with three minutes interval for determining the number of flinches and licks per minute.
The treatments administered consists of (Human equivalent dose)
The above ingredients were suspended in 2.5 ml saline solution to feed by gavage one hour before injection of formalin and pain response was measured for 45 minutes. The data were collected in duplicate and average was taken.

CC(=O)Oc1ccccc1C(=O)O [Aspirin] was tested, and the “percent inhibition in formalin induced pain responses” value (“percent inhibition” for short) (human equivalent dose 100 mg) was 30%.
In the case of C=C(C)[C@@H]1CCC(C)=C[C@H]1c1c(O)cc(CCCCC)cc1O [Cannabidiol (CBD), Cannabidiol], the “percent inhibition” value (human equivalent dose 3 mg) is reported as 8%, the “percent inhibition” value (human equivalent dose 6.25 mg) is reported as 40% and the “percent inhibition” value (human equivalent dose 12.5 mg) is reported as 40%. The “percent inhibition” value (human equivalent dose 25 mg) was 90% and the “percent inhibition” value (human equivalent dose 50 mg) was 90%.
With O[C@H]1[C@H](O)[C@@H](O)[C@H](O)[C@@H](O)[C@H]1O [Inositol] the “percent inhibition” value (human equivalent dose 31.5 mg) was 12%, the “percent inhibition” value (human equivalent dose 60.2 mg) was 30% and the “percent inhibition” value (human equivalent dose 125 mg) was 34%. For the same compound, the “percent inhibition” value (human equivalent dose 250 mg) was 40% and the “percent inhibition” value (human equivalent dose 500 mg) was 85%.
For CC(=O)Nc1ccc(O)cc1 [Paracetamol], the “percent inhibition” value (human equivalent dose 500 mg) was 50% and the “percent inhibition” value (human equivalent dose 1000 mg) was 70%.
